Experimental data published in US20020035243A1, “Transport system conjugates” (priority 1998, published 2002).
Numbered stars: 1 amine (or outer) side, 2 acyl side, 3 side chain; on linkers, the order of the positions; unused ones are H or OH. Ends that are not written are not given here. Ethylenediamine = C(CN[*:2])N[*:1]

Legend:
[1] = test system: Cloudman S91 melanoma cells; test: Melanin formation in melanoma cells with and without α-MSH (indirect measure of TMP penetration); type: cell-based; details: for OD450 nm (melanin content of lysate): 5 days
Procedure: Cloudman S91 melanoma cells (ATCC CCL-53.1) are cultivated to confluence in DMEM+10% FCS in 24-well culture dishes. The S91 cells (0.5 ml per culture) are incubated for 5 days with and without TMP and with 15 nM α-MSH and then harvested. The TMP/TMP-L is added at least 2 hours before the α-MSH. For determination of the melanin, the medium is discarded and the adhering cells are washed 1× with PBS. The cells are then lysed with 0.1 ml of 0.2 M NaOH and the melanin content of the lysate is measured at 450 nm. The cultures of the experimental series are made up in duplicate, the 2nd batch being used to determine the cell count by the MTT test (Mosmann T., J. of Immun. Methods 1983, 65, 55-63). The cell count indicates growth inhibiting effects and the melanin content is given relative to the cell count (OD450 nm/10^6 cells).

smooth muscle cells [2] = test: Penetration of carrier-conjugated peptides into smooth muscle cells; immunofluorescence of α-SM-actin polymerization; type: cell-based, Wistar rats; details: 1 mg/ml in cell culture solution, 1 hour after treatment
Procedure: Smooth muscle cells are isolated by enzymatic cleavage from the thoracic aorta of 6-week-old Wistar rats. 10,000 cells are placed on 60 mm Petri dishes and allowed to grow for 5-6 h in DME and 10% foetal calf serum. The cells are incubated with the peptides for approximately 1 hour in the incubator, then washed twice with PBS (0.5 mmol CaCl2, 3 mmol MgCl2), then fixed with 3% parafornaldehyde for 10 min and permeabilized with 0.1% Triton X-100 in PBS for 1 minute, double-immunofluorescent stained for α-SM-actin and total actin with mouse anti-α-SM 1 and rabbit polyclonal anti-actin antibody, respectively, followed by staining with sheep anti-mouse IgG conjugated with tetramethylrhodamine B isothiocyanate or fluorescent isothiocyanate and sheep anti-rabbit IgG conjugated with fluorescent isothiocyanate, respectively. The preparations are washed with PBS and fixed in polyvinyl alcohol buffer. Photographs are taken with a Zeiss Axiophot light microscope using a fluorescein or rhodamine filter:
FIGS. 1-6 show the immunofluorescence photographs of the inhibition of polymerization 1 hour after treatment of the cell cultures with the substances, the concentration of the cell culture solution being 1 mg/ml.

smooth muscle cells [3] = test: as above; type: cell-based, Wistar rats; details: c=0.5 mg, 1 mg and 2 mg per ml of cell culture solution
α-smooth muscle actin = details: microinjected into cells; cited from earlier work
HaCaT cells = test: Penetration of carrier-conjugated peptides into keratinocytes; fluorescein-streptavidin staining, confocal microscopy; type: cell-based; details: 4 hours incubation, 25 μM
Procedure: Approx. 5×10^5 HaCaT cells (a gift from Dr. N. E. Fusenig, Deutsches Krebsforschungszentrum Heidelberg) are inoculated into 60 mm culture dishes from a confluent culture (DMEM+5% FCS) and allowed to grow for about 12 hours. The cell cultures are incubated for 4 hours with 25 μM Ac-Leu-Gly-Asp[NH(CH2)5—NH—CO-biotin]-Lys(ε-D,L-6,8-dithiooctanamide)-NH—CH2—CH2—NH-octanoylamide and the cells are washed (2× with FCS-free DMEM) and fixed for 5 min at −20° C. with EtOH/acetic acid (95/5). They are washed three times with PBS and then bound to fluorescein-labelled streptavidin (1000×diluted in PBS+10% FCS). Prior to microscopy the cells were washed a further three times with PBS and dried. Photographs were taken with a confocal scanning laser microscope (Sarastro 2000, Molecular Dynamics) at an excitation wavelength of 488 nm using a 510 nm emission filter.

[4] = S91, 30 nM substance plus 15 nM α-MSH
[5] = S91, 30 nM substance, without α-MSH, untreated control about the same

Row | Compound | fluorescein staining (left picture) (smooth muscle cells [2]) | penetration of the peptide into the cell (smooth muscle cells [2]) | polymerization of the smooth α-actin filaments (smooth muscle cells [2]) | rhodamine staining of the smooth muscle α-actin polymers (right picture) (smooth muscle cells [2]) | further results
1 | CCCCCCCC(=O)NNCCNC(=O)C(N)CCCCNC(=O)CCCCC1CCSS1 [free transporter, H-Lys(ε-D,L-6,8-dithiooctanamide)-NH—CH2CH2—NH—NH-octanoylamide] | – | – | – | – | OD450 nm (melanin content of lysate) [1, 4]: approximately 0.7; OD450 nm (melanin content of lysate) [1, 5]: approximately 0.2
2 | Ac-Glu-Glu-Glu-Asp-Lys(E-D,L-6,8-dithiooctanoylamide)-NH—CH2—CH2—NH-hexadecanoylamide (Ac-EEEDK(D,L‑6,8‑dithiooctanoyl)-{Ethylenediamine-hexadecanoyl}) | slight | good penetration | very poorly developed | slight | –
3 | Ac-Glu-Glu-Glu-Asp-Lys(ε-D,L-6,8-dithiooctanoylamide)-NH2 (Ac-EEEDK(D,L‑6,8‑dithiooctanoyl)-NH2) | partial | penetration | partially developed | partial | –
4 | Ac-Glu-Glu-Glu-Asp-Lys(ε-D,L-6,8-dithiooctanoylamide)-NH—CH2—CH2—NH—C═O—(CH2)6—CH3 (Ac-EEEDK(D,L‑6,8‑dithiooctanoyl)-{Ethylenediamine-octanoyl}) | slight | best penetration | very poorly developed | slight | dose-effect relationship (smooth muscle cells [3]): qualitative dose-effect relationship
5 | Ac-Glu-Glu-Glu-Asp-Lys-NH—CH2—CH2—NH-hexadecanoylamide (Ac-EEEDK-{Ethylenediamine-hexadecanoyl}) [reference compound] | strong | no penetration | completely developed | strong | –
6 | Ac-Glu-Glu-Glu-Asp-Lys-NH—CH2—CH2—NH—C═O—(CH2)6—CH3 (Ac-EEEDK-{Ethylenediamine-octanoyl}) [reference compound] | strong | no penetration | completely developed | strong | –
7 | Ac-Glu-Glu-Glu-Asp-NH2 (Ac-EEED-NH2) [reference compound] | strong | no penetration | completely developed | strong | polymerization of α-smooth muscle actin after microinjection in excess (α-smooth muscle actin): inhibits
8 | Ac-Leu-Gly-Asp[NH(CH2)5—NH—CO-biotin]-Lys(ε-D,L-6,8-dithio-octanamide)-NH—CH2CH2—NH-octanoylamide [Batch d] | – | – | – | – | fluorescent staining of cells (HaCaT cells): attractive fluorescent staining
9 | Ac-Leu-Gly-Asp[NH(CH2)5—NH—CO-biotin]-OH [Ac-Leu-Gly-Asp-OH] | – | – | – | – | fluorescent staining of cells (HaCaT cells): no fluorescent staining
10 | EDYHSLYNSHL [free TMP, reference compound] | – | – | – | – | OD450 nm (melanin content of lysate) [1, 4]: approximately 0.7; OD450 nm (melanin content of lysate) [1, 5]: approximately 0.2
11 | H-Glu-Asp-Tyr-His-Ser-Leu-Tyr-Asn-Ser-His-Leu-Lys(ε-D,L-6,8-dithiooctanamide)-NH—CH2CH2—NH-octanylamide (H-EDYHSLYNSHLK-{Ethylenediamine-octanoyl}; not fully specified (residue 12)) [transporter-bound TMP] | – | – | – | – | OD450 nm (melanin content of lysate) [1, 4]: approximately 0.2; OD450 nm (melanin content of lysate) [1, 5]: approximately 0.2; effect on melanin formation induced by α-MSH ([1]; S91 treated with α-MSH combined with transporter-bound TMP): prevention of melanin formation
12 | α-MSH: stimulant of melanin formation added to S91 cells at 15 nM (Ac-SYSMEHFRWGKPV-NH2; ends and bridges not checked; UniProt P01189 138-150, looked up) [reference compound] | – | – | – | – | OD450 nm (melanin content of lysate) ([1]; S91, 15 nM α-MSH alone): approximately 0.7
